In patent US20060276465A1, “1,2-di(cyclic) substituted benzene compounds” (Eisai R&D Management Co., Ltd., priority 2003, published 2006):
Counter-ions that a name gives are not always drawn.

Columns and labels:
[1] = test system: Jurkat cells; test: Jurkat cell adhesion system (adhesion to immobilized human fibronectin, PMA-stimulated); assay type: cell-based; settings: concentration inhibiting by 50% the PMA-stimulated increase in adhered Jurkat cells on human fibronectin
Description: The “C1-6 haloalkyl” of Group A1 and Group A2 (mentioned below) is aforementioned “C1-6 alkyl” having 1-6 aforementioned “halogen” bonded thereto, as examples there may be mentioned straight-chain or branched-chain alkyl groups such as methyl, ethyl, n-propyl, isopropyl, n-butyl, isobutyl, s-butyl, t-butyl, pentyl, isopentyl, 2-methylbutyl, neopentyl, 1-ethylpropyl, hexyl, isohexyl, 4-methylpentyl, 3-methylpentyl, 2-methylpentyl, 1-methylpentyl, 3,3-dimethylbutyl, 2,2-dimethylbutyl, 1,1-dimethylbutyl, 1,2-dimethylbutyl, 1,3-dimethylbutyl, 2,3-dimethylbutyl, 1-ethylbutyl or 2-ethylbutyl, having fluorine or chlorine bonded thereto, among which C1-4 alkyl having 1 to 3 fluorine or chlorine bonded thereto is preferred, and trifluoromethyl is particularly preferred.
As examples of the “C2-7 alkylene”, where C2-7 alkylene is permissible only in the case that a spiro union is formed together with the substituted 5- to 10-membered cycloalkyl or the substituted 5- to 10-membered cycloalkenyl, of Group A1 and Group A2 (mentioned below), there may be mentioned straight-chain or branched-chain groups such as 1,2-ethylene, trimethylene, propylene, ethylethylene, tetramethylene, pentamethylene, hexamethylene or heptamethylene, among which 1,2-ethylene, trimethylene, tetramethylene or pentamethylene is preferred, and 1,2-ethylene, tetramethylene or pentamethylene is particularly preferred.
As examples of the “halogen” of Group W1 there may be mentioned the same ones listed above, among which fluorine or chlorine is preferred.
As examples of the “C1-6 alkyl” of Group W1 there may be mentioned the same ones listed above, among which C1-4 groups are preferred, and methyl or ethyl is particularly preferred.
The “C2-7 alkoxyalkyl” of Group W1 is aforementioned “C1-6 alkyl” having the aforementioned “C1-6 alkoxy” bonded thereto, of 2 to 7 carbon (total number of carbon), and as examples there may be mentioned methoxymethyl, methoxyethyl, ethoxyethyl, methoxypropyl or propoxyethyl, among which methoxymethyl is preferred.
As examples of the “C1-6 alkoxy” of the “C1-6 alkoxy optionally substituted with a substituent selected from Group T1” of Group W1 there may be mentioned the same ones listed above, among which C1-4 groups are preferred, and methoxy, ethoxy, isopropoxy or propoxy is particularly preferred.

[2] = test system: human peripheral blood neutrophils; test: Human peripheral blood neutrophil adhesion system (adhesion to HUVEC immobilized plate, PMA-stimulated); assay type: cell-based; settings: concentration inhibiting by 50% the PMA-stimulated increase in neutrophils adhered to HUVEC
Description: As examples of the “C2-7 alkylcarbonyl” of Group W1 there may be mentioned the same ones listed above, among which C2-5 groups are preferred, and acetyl is particularly preferred.
As examples of the “C1-6 alkyl” for R^6X and R^7X there may be mentioned the same ones listed above.
As examples of the “halogen” of Group C1 there may be mentioned the same ones listed above, among which bromine, fluorine or chlorine is preferred.
As examples of the “C1-6 alkyl” of Group C1 there may be mentioned the same ones listed above, among which C1-4 groups are preferred, and methyl is particularly preferred.
As examples of the “C1-6 alkoxy” of Group C1 there may be mentioned the same ones listed above, among which C1-4 groups are preferred, and methoxy or ethoxy is particularly preferred.
As examples of the “halogen” of Group D1 and Group D2 (mentioned below) there may be mentioned the same ones listed above, among which fluorine or chlorine is preferred.
As examples of the “C1-6 alkoxy” of Group D1 and Group D2 (mentioned below) there may be mentioned the same ones listed above, among which C1-4 groups are preferred, and methoxy or ethoxy is particularly preferred.
The “C1-6 alkylthio” of Group D1 is a thio group having the aforementioned “C1-6 alkyl” bonded thereto, and as examples there may be mentioned straight-chain or branched-chain groups such as methylthio, ethylthio, propylthio, isopropylthio, […], isobutylthio, s-butylthio, t-butylthio, pentylthio, isopentylthio, 2-methylbutylthio, neopentylthio, 1-ethylpropylthio, hexylthio, isohexylthio, 4-methylpentylthio, 3-methylpentylthio, 2-methylpentylthio, 1-methylpentylthio, 3,3-dimethylbutylthio, 2,2-dimethylbutylthio, 1,1-dimethylbutylthio, 1,2-dimethylbutylthio, 1,3-dimethylbutylthio, 2,3-dimethylbutylthio, 1-ethylbutylthio or 2-ethylbutylthio, among which C1-4 groups are preferred, and methylthio or ethylthio is particularly preferred.
As examples of the “C1-6 alkylsulfonyl” of Group D1 there may be mentioned the same ones listed above, among which C1-4 groups are preferred, and methylsulfonyl or ethylsulfonyl is particularly preferred.
The “C1-6 alkylsulfinyl” of Group D1 is a sulfinyl group having the aforementioned “C1-6 alkyl” bonded thereto, as examples there may be mentioned straight-chain or branched-chain groups such as methylsulfinyl, ethylsulfinyl, propylsulfinyl, isopropylsulfinyl, […], isobutylsulfinyl, s-butylsulfinyl, t-butylsulfinyl, pentylsulfinyl, isopentylsulfinyl, 2-methylbutylsulfinyl, neopentylsulfinyl, 1-ethylpropylsulfinyl, hexylsulfinyl, isohexylsulfinyl, 4-methylpentylsulfinyl, 3-methylpentylsulfinyl, 2-methylpentylsulfinyl, 1-methylpentylsulfinyl, 3,3-dimethylbutylsulfinyl, 2,2-dimethylbutylsulfinyl, 1,1-dimethylbutylsulfinyl, 1,2-dimethylbutylsulfinyl, 1,3-dimethylbutylsulfinyl, 2,3-dimethylbutylsulfinyl, 1-ethylbutylsulfinyl or 2-ethylbutylsulfinyl, among which C1-4 groups are preferred, and methylsulfinyl or ethylsulfinyl is particularly preferred.

[3] = test system: Jurkat cells; test: Jurkat cell adhesion system (adhesion to immobilized human fibronectin, PMA-stimulated); assay type: cell-based; settings: concentration inhibiting by 50% the PMA-stimulated increase in the number of adhered Jurkat cells on human fibronectin; 45-60 minutes, 37° C.
Method: Evaluation of Compounds in Jurkat Cell Adhesion System
<Immobilization of Human Fibronectin in 96-Well Plate>
Human fibronectin (Becton Dickinson Biosciences) was diluted with phosphate-buffered saline (hereinafter abbreviated as PBS; Sigma) to 0.1-0.01 μg/ml, and the diluted solution was added to a 96-well plate (Becton Dickinson) at 50 μl/well, and allowed to stand overnight at 4° C. On the following day, the supernatant was removed from the plate, and then PBS containing 1% bovine serum albumin (hereinafter abbreviated as BSA; Sigma) was added thereto at 100 μl/well and incubation was performed at 37° C. for 2 hours in a CO2 incubator (Hirasawa).
The supernatant was removed from each plate and Jurkat cells suspended in RPMI-1640 (Sigma) containing 1 mg/ml BSA were added at 80 μl/well for 2.5×10^5 cells/well. The compound diluted to different concentrations with RPMI-1640 containing 1 mg/ml BSA was immediately added at 10 μl/well, and then 100 nM phorbol myristate acetate (hereinafter abbreviated as PMA; Sigma) in RPMI-1640 containing 1 mg/ml BSA was added at 10 μl/well and the plate was incubated in a CO2 incubator at 37° C. for 45-60 minutes. The supernatant was removed from the plate and each well was washed several times with 100 μl/well of RPMI-1640, after which 50 mM citrate buffer (pH 5.0) containing 3.75 mM p-nitrophenol-N-acetyl-β-D-glucosaminide (Sigma) and 0.25% Triton X-100 (Sigma) were added at 60 μl/well, and the mixture was placed in a CO2 incubator and incubated at 37° C. for 45 minutes. After incubation, 50 mM glycine buffer (pH 10.4) containing 5 mM EDTA was added at 90 μl/well, and the absorbance at 405 nm was measured with an EL340 Automated Microplate Reader (BIO-TEK) to determine the adhered cell count. The concentration of each compound which inhibited the increase in the number of adhered cells by the PMA-stimulation by 50% was recorded as the IC50 (μM).

[4] = test system: human peripheral blood neutrophils; test: Human peripheral blood neutrophil adhesion system (adhesion to immobilized HUVEC, PMA-stimulated); assay type: cell-based; settings: 0.75 h, concentration inhibiting by 50% the PMA-stimulated increase in the number of adhered BCECF-AM labeled neutrophils on HUVEC immobilized plate, 45 minutes, 37° C.
Method: Evaluation of Compounds in Human Peripheral Blood Neutrophil Adhesion System
<Preparation of Human Peripheral Blood Neutrophils>
To a plastic centrifugation tube containing 100 units of heparin sodium (Shimizu Pharmaceutical) was added 25 ml of fresh blood sampled from a healthy human. After adding and mixing therewith 8 ml of physiological saline (Otsuka Pharmaceutical) containing 6% Dextran (Nacalai), the mixture was allowed to stand at room temperature for 45 minutes for sedimentation of the erythrocytes. The resultant supernatant was transferred to another plastic centrifugation tube and combined with an equivalent volume of phosphate-buffered saline (hereinafter abbreviated as PBS; Sigma), and then centrifuged at 1600 rpm for 7 minutes at room temperature. The obtained hematocyte fraction was suspended in 4 ml of PBS, and the suspension was superposed on 4 ml of Ficoll-Paque™ PLUS (Amersham Biosciences). The resultant bilayer liquid was centrifuged at 2000 rpm for 30 minutes at room temperature, after which the supernatant was removed and the precipitate was suspended in 10 ml of PBS and centrifuged at 1200 rpm for 7 minutes, and the supernatant was removed. The resulting precipitate was suspended in 0.5 ml of PBS again, and then 10 ml of distilled water (Otsuka Pharmaceutical) was added, 0.5 ml of an aqueous solution containing 3 M NaCl was immediately added to restore isotonicity, the mixture was centrifuged at 1200 rpm for 7 minutes, and the obtained precipitate was suspended in PBS containing 1 mg/ml bovine serum albumin (hereinafter abbreviated as BSA; Sigma) again and stored in ice until being used for the experiment.
<Fluorescent Labeling of Human Peripheral Blood Neutrophils>
The obtained neutrophils were suspended in PBS containing 1 mg/ml BSA at 2×10^7 cells/ml. BCECF-AM (Dojin) was added to a final concentration of 5 μM, and the mixture was incubated at 37° C. for 45 minutes. It was then rinsed twice with PBS containing 1 mg/ml BSA by centrifugation, suspended again in PBS containing 1 mg/ml BSA at 5×10^7 cells/ml, and stored in ice until use.
<Preparation of HUVEC Immobilized Plate>
Human umbilical vein endothelial cells (hereinafter abbreviated as HUVEC) were suspended in MCDB131 medium (Chlorella Industries) containing 10% fetal calf serum and 30 μg/ml endothelial cell growth supplement (Becton Dickinson Bioscience). The suspension was added at 7.5×10^3 cells/well to a 96-well plate (Iwaki) immobilized with type I collagen, and cultured for 3 days in a CO2 incubator (Hirasawa). Upon confirming confluency of the cells, the supernatant was discarded, the plate was rinsed twice with PBS, and then PBS containing 0.1% glutaraldehyde (Kanto Kagaku) was added at 100 μl/well and the HUVECs were immobilized for 5 minutes. The supernatant was discarded and the plate was washed twice with PBS, and then PBS was added at 100 μl/well and the mixture was stored at 4° C. until use.
To 6.5 ml of RPMI-1640 medium (Sigma) containing 1 mg/ml of BSA were added 0.5 ml of a suspension of BCECF-AM labeled neutrophils at 5×10^7/ml stored in ice, which was mixed, and the mixture was added at 80 μl/well to a HUVEC immobilized plate. To this plate were immediately added 10 μl/well of a solution of the compound diluted at different concentrations with RPMI-1640 containing 1 mg/ml BSA, and 10 μl/well of 100 nM phorbol myristate acetate (hereinafter abbreviated as PMA; Sigma) in RPMI-1640 containing 1 mg/ml BSA, and the mixture was incubated in a CO2 incubator at 37° C. for 45 minutes. The supernatant was removed from the plate, which was then washed several times with RPMI-1640 at 100 μl/well, and then PBS containing 0.1% NP-40 (Calbiochem) was added thereto at 100 μl/well and the fluorescent intensity was measured with and ARVO™SX 1420 multi label counter (Wallac) to determine the number of adhered cells. […]

[5] = test system: Balb/c mice; test: DSS-induced colitis model; assay type: in vivo; settings: male Balb/c mice; 1-3% DSS for 5-7 days; 30 mg/kg orally once a day for 5-7 successive days
Description: Evaluation of Compounds in DSS-Induced Colitis Model
A 1-3% solution of dextran sulfate sodium (hereinafter abbreviated as DSS; ICN) in purified water (Otsuka Pharmaceutical) was fed freely to 6- to 7-week-old male Balb/c mice (Charles River Japan) for 5-7 days to induce colitis. Disease Activity Index (hereinafter abbreviated as DAI) scored based on fecal hardness, blood content in feces and body weight change, the number of neutrophils infiltrating the colon and the length of the colon were used as indexes to evaluate compounds. Each compound was suspended or dissolved in an aqueous solution containing 0.5% methyl cellulose (Wako), and orally administered at 30 mg/kg once a day, for 5-7 successive days.

Compound | IC50 [1] [µM] | IC50 [2] [µM] | IC50 [3] [µM] | IC50 [4] [µM] | improvement in comparison with the DSS control group (DAI, number of neutrophils infiltrating the colon, length of the colon) [5]
CCCN1CCN(c2cc3c(cc2C2=CCC(C(C)(C)C)CC2)N(C)CCO3)CC1 (racemic) [Example 8, 6-(4-t-Butylcyclohex-1-enyl)-4-methyl-7-(4-propylpiperazin-1-yl)-3,4-dihydro-2H-benzo[1,4]oxazine hydrochloride] | 3.4 | 16.7 | – | – | –
CCCCN1CCN(c2cc(OCCOC)ccc2C2CC(C)(C)CC(C)(C)C2)CC1 [Example 10, 1-Butyl-4-[5-(2-methoxyethoxy)-2-(3,3,5,5-tetramethylcyclohexyl)phenyl]piperazine hydrochloride] | 3.3 | 7.8 | – | – | –
CCCN1CCN(c2ccc(OCCOC)cc2C2CC(C)(C)CC(C)(C)C2)CC1 [Example 12, 1-[4-(2-Methoxyethoxy)-2-(3,3,5,5-tetramethylcyclohexyl)phenyl]-4-propylpiperazine hydrochloride] | 14.7 | 12.5 | – | – | –
CCCCN1CCN(c2cc3c(cc2C2=CC(C)(C)CC(C)(C)C2)OCO3)CC1 [Example 13, 1-Butyl-4-[6-(3,3,5,5-tetramethylcyclohex-1-enyl)benzo [1,3]dioxol-5-yl]piperazine hydrochloride] | 3.8 | 21.7 | – | – | –
CCCCN1CCN(c2cc3c(cc2C2CC(C)(C)CC(C)(C)C2)OCO3)CC1 [Example 14, 1-Butyl-4-[6-(3,3,5,5-tetramethylcyclohexyl)benzo[1,3]dioxol-5-yl]piperazine hydrochloride] | 7.1 | 22.4 | – | – | –
CCCCN1CCN(c2ccc(N3CCC(OC)CC3)cc2C2CC(C)(C)CC(C)(C)C2)CC1.Cl [Example 32, 1-Butyl-4-[4-(4-methoxypiperidin-1-yl)-2-(3,3,5,5-tetramethylcyclohexyl)phenyl]piperazine hydrochloride] | – | – | 3.6 | 7 | particularly good improvement
